Test results reported in patent publication US20110039926A1 (priority 2008, published 2011).

How the values were obtained:
[1] = biological target: T1, norepinephrine uptake (Rattus norvegicus, UniProt Q63380); settings: homogenate of rat hypothalamus; versus racemic milnacipran hydrochloride; cited from earlier work
T1 construct: from tissue; host or cells: rat hypothalamus homogenate

[2] = test system: patients with Major Depressive Disorders (MDD); experiment: multi-center, randomised, double-blinded, placebo-controlled 10 weeks study of F2695 in Major Depressive Disorders; format: in vivo, human
From the text: This was a multi-center, randomised, double-blinded, placebo-controlled 10 weeks study, assessing the efficacy and safety of F2695 flexible safety adapted dose in the treatment of patients with Major Depressive Disorders (MDD).
This study enrolled 563 patients who met the DSM-IV criteria for major depression with depression severity at the inclusion time assessed by HAM-D 17 score >22.
Patients were randomised to receive placebo or a flexible safety adapted dose by increasing progressively the administered doses using slow release capsules containing 25 or 50 mg of active drug (281 patients for placebo and 282 patients for F2695).
Placebo as well as F2695 were administered once a day as slow release capsules.
Slow release capsules were constituted of a plurality of minigranules each containing an active minisphere comprising a sucrose core containing F2695 as well as PVP as a binding agent; each minigranule being coated with a film of ethyl cellulose as described in EP 939 626. Placebo was constituted of the same slow release capsules of minigranules containing minispheres constituted only of a sucrose core.
The doses were administered in a dose escalation regimen during 10 days for initial titration. […]
Safety of F2695 was assessed by analysing: • frequency and intensity of adverse events as classified in the ICH guidelines (any adverse change from the subject's baseline condition, i.e. any subjective signs and symptoms, or change in a concomitant disease present at the selection visit, either considered or not related to the treatment) • suicidal risk evaluated by the MINI version 0.5 (modified Mini International Neuropsychiatric Interview) Efficiency of F2695 was assessed by: • MADRS Total score: change from baseline MMRM analysis (Full analysis data set) • MADRS Total score: change from baseline MMRM analysis (Per Protocol data set) • Responders and remitted patients compared to placebo group at Day 70 (end of the treatment period) Results from Safety

[3] = compared with other psychotropic products such as clomipramine and milnacipran; cited from earlier work
[4] = test system: patients suffering from psychiatric disorders (among them MDD); settings: several trials, patients with psychiatric disorders (among them MDD); cited from earlier work

T1 sequence (Q63380 1-617): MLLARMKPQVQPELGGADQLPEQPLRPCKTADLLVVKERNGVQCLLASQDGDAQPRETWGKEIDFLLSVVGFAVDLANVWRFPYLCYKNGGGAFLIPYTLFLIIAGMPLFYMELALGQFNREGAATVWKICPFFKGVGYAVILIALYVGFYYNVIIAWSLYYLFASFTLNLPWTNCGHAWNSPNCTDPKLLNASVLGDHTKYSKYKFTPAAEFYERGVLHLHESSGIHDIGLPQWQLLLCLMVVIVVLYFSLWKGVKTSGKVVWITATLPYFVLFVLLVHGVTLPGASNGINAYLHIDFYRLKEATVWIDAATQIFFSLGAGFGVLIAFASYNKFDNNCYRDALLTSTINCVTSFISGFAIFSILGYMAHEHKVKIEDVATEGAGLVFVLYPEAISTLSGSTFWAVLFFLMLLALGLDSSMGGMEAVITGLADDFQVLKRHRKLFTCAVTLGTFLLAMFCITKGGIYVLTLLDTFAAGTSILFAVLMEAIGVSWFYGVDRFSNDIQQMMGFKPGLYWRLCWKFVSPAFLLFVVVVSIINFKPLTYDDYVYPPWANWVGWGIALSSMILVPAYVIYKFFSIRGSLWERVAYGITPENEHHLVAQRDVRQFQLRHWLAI

| Structure (SMILES) | efficiency in norepinephrine uptake relative to the racemate [1] | patients presenting significant Suicidal Risk (%) ([2]; During the 6-weeks treatment and follow-up, versus 2.1% upon placebo) | patients presenting significant Suicidal Risk ([2]; During the 6-weeks treatment and follow-up, versus 6 patients upon placebo) | Suicidal Risk in patients suffering from depression ([2]; conclusion from the odds ratio obtained in a small population) | odds ratio (OR) of significant Suicidal Risk, F2695 versus placebo ([2]; logits method, confidence interval [0.0196, 1.3686]) | Insufficient response (withdrawn patients) ([2]; n = 282, number of patients) | Serious Adverse Event/Non Serious Adverse Event (withdrawn patients) ([2]; n = 282, number of patients) | Therapeutic Failure (withdrawn patients) ([2]; n = 282, number of patients) | Worsening of MDD (withdrawn patients) ([2]; n = 282, number of patients) | Significant Suicidal Risk (withdrawn patients) ([2]; n = 282, number of patients, suicidal risk evaluated by the MINI) | Insufficient response (withdrawn patients, %) ([2]; n = 282, percent of group) | Serious Adverse Event/Non Serious Adverse Event (withdrawn patients, %) ([2]; n = 282, percent of group) | Therapeutic Failure (withdrawn patients, %) ([2]; n = 282, percent of group) | Worsening of MDD (withdrawn patients, %) ([2]; n = 282, percent of group) | Significant Suicidal Risk (withdrawn patients, %) ([2]; n = 282, percent of group, suicidal risk evaluated by the MINI) | safety coefficient [3] | toxico-genomic profile [3] | odds ratio (OR) versus placebo, suicidal behaviour and ideation [4] |
| --- | --- | --- | --- | --- | --- | --- | --- | --- | --- | --- | --- | --- | --- | --- | --- | --- | --- | --- |
| CCN(CC)C(=O)[C@@]1(c2ccccc2)C[C@H]1CN.Cl [F2695, Z-(1S,2R)-2-(aminomethyl)-N,N-diethyl-1-phenyl cyclopropane carboxamide hydrochloride] | two | 0.4% | 1 patient | significantly reduced | 0.1637 | 16 | 26 | 22 | 11 | 1 | 5.7% | 9.2% | 7.8% | 3.9% | 0.4% | significantly better | superior | – |
| CN(C)CCC[C@@]1(c2ccc(F)cc2)OCc2cc(C#N)ccc21 [escitalopram] | – | – | – | – | – | – | – | – | – | – | – | – | – | – | – | – | – | 1.57 |
